A short description of series [1]: Cytotoxicity against HPDE cells measured after 72 hrs by MTT assay. It counts as toxicity, cell-based. Particulars: human.
Series [2] can be described thus: Cytotoxicity against HEK293 cells measured after 72 hrs by MTT assay. Format: toxicity, cell-based. Particulars: human.
Series [3] relates to MIA PaCa-2. The series is described as follows: Upregulation of GRP78 in human MIA PaCa-2 cells at 10 to 30 uM measured after 24 hrs by Western blot analysis. Format: functional, cell-based. The conditions noted are these: dose 10-30 µM.
A further series relates to Panc02. The experiment in a line: cells. The conditions noted are these: Mus musculus, Panc02, 72 h.
Series [4] relates to MIA PaCa-2. The series is described as follows: Antagonistic cytotoxicity against human MIA PaCa-2 cells at 0.001 to 0.1 uM measured after 7 days in presence of ammonium tetrathiomolybdate by crystal violet staining based analysis. It counts as functional, cell-based. The conditions noted are these: dose 0.001-0.1 µM, time 7.0 day.
Another series is described as follows: cells. The conditions noted are these: Mus musculus, KPC2, 72 h.
The test system of the next series is HCT-116. The experiment in a line: Inhibition of colony formation in human HCT-116 cells at 0.04 to 30 uM pretreated with ammonium tetrathiomolybdate for 4 hrs followed by compound addition and measured after 6 days. It counts as functional, cell-based. The conditions noted are these: dose 0.04-30 µM, time 6.0 day.
For series [5], the system named is MIA PaCa-2. The experiment in a line: Synergistic cytotoxicity against human MIA PaCa-2 cells at 0.001 to 0.1 uM measured after 7 days in presence of copper chloride by crystal violet staining based analysis. It counts as functional, cell-based. The conditions noted are these: dose 0.001-0.1 µM, time 7.0 day.
The nature of series [6]: Cytotoxicity against HFF-1 cells measured after 72 hrs by MTT assay. The conditions noted are these: human. It counts as toxicity, cell-based. Background: Formazan colour is commonly taken as a measure of viable cells.
The next series has as its system PANC-1. The experiment in a line: cells. Particulars: Homo sapiens, PANC-1, 72 h.
For a further series, the system named is BXPC-3. The experiment in a line: cells. Particulars: Homo sapiens, BXPC-3, 72 h.
Series [7] deals with MIA PaCa-2. The experiment in a line: Inhibition of colony formation in human MIA PaCa-2 cells at 0.04 to 30 uM pretreated with ammonium tetrathiomolybdate for 4 hrs followed by compound addition and measured after 6 days. Format: functional, cell-based. The conditions noted are these: dose 0.04-30 µM, time 6.0 day.
Series [8] is described as follows: Metabolic stability in human liver microsomes assessed as half life at 10 uM measured upto 60 mins in presence of NADPH by LC-MS/MS analysis. Format: ADME, Microsome. The conditions noted are these: for t1/2: microsomes, 1 h, 10 µM. (Microsomes from liver hold many membrane-bound enzymes, among them those of drug oxidation.)
Series [9] has as its system MIA PaCa-2. The experiment in a line: cells. The conditions noted are these: Homo sapiens, MIA PaCa-2, 72 h.
Series [10] in a line: Metabolic stability in mouse liver microsomes assessed as half life at 10 uM measured upto 60 mins in presence of NADPH by LC-MS/MS analysis. Format: ADME, Microsome. Particulars: 1 h.
The target in series [11] is Sigma intracellular receptor 2 (Homo sapiens, UniProt Q5BJF2). The series is described as follows: Displacement of [3H][…]ditolylguanidine from human sigma 2 receptor transfected in human HEK293T cells assessed as inhibition constant by radioligand competition binding assay. It counts as cell-based. Background: Loss of bound radioactivity is the signal in a displacement assay; it reports binding, not function.

Series [12] deals with Sigma non-opioid intracellular receptor 1 (Homo sapiens, UniProt Q99720). The series is described as follows: Displacement of [3H](+)-pentazocine from human sigma 1 receptor transfected in human HEK293T cells assessed as inhibition constant by radioligand competition binding assay. It counts as cell-based.
The target of series [13] is 5-hydroxytryptamine receptor 1A (Homo sapiens, UniProt P08908). The experiment in a line: Binding affinity to 5-HT1A receptor (unknown origin) assessed as inhibition constant.
The next series concerns the target D(1B) dopamine receptor (Homo sapiens, UniProt P21918). The experiment in a line: Binding affinity to dopamine D5 receptor (unknown origin) assessed as inhibition constant.
The target in series [14] is 5-hydroxytryptamine receptor 1D (Homo sapiens, UniProt P28221). The experiment in a line: Binding affinity to 5-HT1D receptor (unknown origin) assessed as inhibition constant.
For series [15], the target named is 5-hydroxytryptamine receptor 2B (Homo sapiens, UniProt P41595). The series is described as follows: Binding affinity to 5-HT2B receptor (unknown origin) assessed as inhibition constant.
Another series deals with D(3) dopamine receptor (Homo sapiens, UniProt P35462). The series is described as follows: Binding affinity to dopamine D3 receptor (unknown origin) assessed as inhibition constant.
In the next series the target is Histamine H2 receptor (Homo sapiens, UniProt P25021). The experiment in a line: Binding affinity to histamine H2 receptor (unknown origin) assessed as inhibition constant.
Series [16] addresses Muscarinic acetylcholine receptor M5 (Homo sapiens, UniProt P08912). The experiment in a line: Binding affinity to M5 receptor (unknown origin) assessed as inhibition constant.
Another series addresses D(1A) dopamine receptor (Homo sapiens, UniProt P21728). The series is described as follows: Binding affinity to dopamine D1 receptor (unknown origin) assessed as inhibition constant.
Series [17] has as its target Alpha-2A adrenergic receptor (Homo sapiens, UniProt P08913). The series is described as follows: Binding affinity to alpha2A receptor (unknown origin) assessed as inhibition constant.
Series [18] deals with Muscarinic acetylcholine receptor M1 (Homo sapiens, UniProt P11229). The experiment in a line: Binding affinity to M1 receptor (unknown origin) assessed as inhibition constant.
Series [19] deals with Kappa-type opioid receptor (Homo sapiens, UniProt P41145). The series is described as follows: Binding affinity to KOR receptor (unknown origin) assessed as inhibition constant.
Series [20] concerns the target Muscarinic acetylcholine receptor M2 (Homo sapiens, UniProt P08172). The series is described as follows: Binding affinity to M2 receptor (unknown origin) assessed as inhibition constant.
In series [21] the target is Muscarinic acetylcholine receptor M4 (Homo sapiens, UniProt P08173). The series is described as follows: Binding affinity to M4 receptor (unknown origin) assessed as inhibition constant.
A further series addresses Histamine H3 receptor (Homo sapiens, UniProt Q9Y5N1). The experiment in a line: Binding affinity to histamine H3 receptor (unknown origin) assessed as inhibition constant.
The target in series [22] is Alpha-2B adrenergic receptor (Homo sapiens, UniProt P18089). The series is described as follows: Binding affinity to alpha2B receptor (unknown origin) assessed as inhibition constant.
Series [23] has as its target Muscarinic acetylcholine receptor M3 (Homo sapiens, UniProt P20309). The experiment in a line: Binding affinity to M3 receptor (unknown origin) assessed as inhibition constant.

As a reminder, the IC50 is the midpoint of a concentration-inhibition curve. As usually defined, the Ki is the dissociation constant of the complex between target and ligand, obtained from inhibition or displacement. Broadly, the half-life is how long it takes for the measured level to halve.

The source made the active and inactive calls. No cut-off for these calls is given here.

Sequence of Sigma intracellular receptor 2 (Q5BJF2 whole entry): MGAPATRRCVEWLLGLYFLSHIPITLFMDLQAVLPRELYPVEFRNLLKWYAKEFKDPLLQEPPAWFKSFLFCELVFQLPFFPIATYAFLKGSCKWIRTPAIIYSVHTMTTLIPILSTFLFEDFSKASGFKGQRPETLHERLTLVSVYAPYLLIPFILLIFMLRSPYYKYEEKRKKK
Sequence of Sigma non-opioid intracellular receptor 1 (Q99720 whole entry): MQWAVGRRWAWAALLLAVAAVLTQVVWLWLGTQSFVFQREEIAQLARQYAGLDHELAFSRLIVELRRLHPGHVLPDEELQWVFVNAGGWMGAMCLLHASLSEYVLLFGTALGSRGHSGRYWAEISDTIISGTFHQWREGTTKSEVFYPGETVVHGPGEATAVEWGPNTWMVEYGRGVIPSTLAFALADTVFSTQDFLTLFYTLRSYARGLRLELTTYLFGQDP
Sequence of 5-hydroxytryptamine receptor 2B (P41595 whole entry): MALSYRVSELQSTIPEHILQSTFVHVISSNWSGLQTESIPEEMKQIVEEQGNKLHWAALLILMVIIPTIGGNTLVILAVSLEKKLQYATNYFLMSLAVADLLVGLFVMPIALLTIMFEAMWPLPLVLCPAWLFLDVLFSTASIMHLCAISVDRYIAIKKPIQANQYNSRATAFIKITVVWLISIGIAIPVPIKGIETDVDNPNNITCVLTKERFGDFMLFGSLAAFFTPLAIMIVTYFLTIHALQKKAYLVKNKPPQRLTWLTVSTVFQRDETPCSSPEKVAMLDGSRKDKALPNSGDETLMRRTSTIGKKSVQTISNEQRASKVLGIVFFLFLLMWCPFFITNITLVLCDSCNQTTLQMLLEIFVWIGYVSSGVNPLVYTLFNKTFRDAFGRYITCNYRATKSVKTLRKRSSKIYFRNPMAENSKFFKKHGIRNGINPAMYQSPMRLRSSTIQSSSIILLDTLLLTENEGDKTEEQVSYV
Sequence of 5-hydroxytryptamine receptor 1A (P08908 whole entry): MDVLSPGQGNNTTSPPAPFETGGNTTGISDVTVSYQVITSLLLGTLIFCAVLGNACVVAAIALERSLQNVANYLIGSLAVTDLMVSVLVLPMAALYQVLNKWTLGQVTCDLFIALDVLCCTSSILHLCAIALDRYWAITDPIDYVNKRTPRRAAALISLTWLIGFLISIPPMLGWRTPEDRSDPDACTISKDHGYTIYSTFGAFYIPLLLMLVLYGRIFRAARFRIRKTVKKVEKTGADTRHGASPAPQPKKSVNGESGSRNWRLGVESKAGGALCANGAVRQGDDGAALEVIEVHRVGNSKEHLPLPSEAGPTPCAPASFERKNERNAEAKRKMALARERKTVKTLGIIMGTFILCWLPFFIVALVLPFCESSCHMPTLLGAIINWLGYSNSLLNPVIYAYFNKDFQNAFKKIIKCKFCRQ
Sequence of Muscarinic acetylcholine receptor M3 (P20309 whole entry): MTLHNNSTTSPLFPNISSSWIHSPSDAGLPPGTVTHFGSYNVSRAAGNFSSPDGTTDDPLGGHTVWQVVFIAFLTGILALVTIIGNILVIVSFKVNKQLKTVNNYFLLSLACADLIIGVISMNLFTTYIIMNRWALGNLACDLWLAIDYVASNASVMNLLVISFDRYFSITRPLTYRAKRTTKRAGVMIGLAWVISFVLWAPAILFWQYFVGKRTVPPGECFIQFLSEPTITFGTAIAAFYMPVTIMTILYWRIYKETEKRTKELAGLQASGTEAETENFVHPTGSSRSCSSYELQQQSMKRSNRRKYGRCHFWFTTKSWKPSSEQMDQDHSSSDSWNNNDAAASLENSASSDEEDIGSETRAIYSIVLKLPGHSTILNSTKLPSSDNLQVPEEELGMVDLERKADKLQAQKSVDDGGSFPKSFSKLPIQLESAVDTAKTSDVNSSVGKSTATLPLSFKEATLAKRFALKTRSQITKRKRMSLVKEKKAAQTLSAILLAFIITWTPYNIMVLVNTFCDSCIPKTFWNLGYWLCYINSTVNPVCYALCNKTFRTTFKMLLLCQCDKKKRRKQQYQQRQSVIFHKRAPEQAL
Sequence of Histamine H3 receptor (Q9Y5N1 whole entry): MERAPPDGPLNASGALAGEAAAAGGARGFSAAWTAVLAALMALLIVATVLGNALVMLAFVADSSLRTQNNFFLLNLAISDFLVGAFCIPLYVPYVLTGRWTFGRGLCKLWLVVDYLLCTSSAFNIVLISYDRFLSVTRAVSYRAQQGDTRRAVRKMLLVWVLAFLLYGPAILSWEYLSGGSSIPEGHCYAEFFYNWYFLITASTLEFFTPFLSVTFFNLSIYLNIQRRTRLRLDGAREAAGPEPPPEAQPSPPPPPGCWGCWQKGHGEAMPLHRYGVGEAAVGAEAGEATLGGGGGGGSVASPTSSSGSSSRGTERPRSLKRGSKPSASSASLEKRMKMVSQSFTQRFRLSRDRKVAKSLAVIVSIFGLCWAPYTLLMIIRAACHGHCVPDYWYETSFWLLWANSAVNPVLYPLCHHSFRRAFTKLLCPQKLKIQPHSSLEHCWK
Sequence of 5-hydroxytryptamine receptor 1D (P28221 whole entry): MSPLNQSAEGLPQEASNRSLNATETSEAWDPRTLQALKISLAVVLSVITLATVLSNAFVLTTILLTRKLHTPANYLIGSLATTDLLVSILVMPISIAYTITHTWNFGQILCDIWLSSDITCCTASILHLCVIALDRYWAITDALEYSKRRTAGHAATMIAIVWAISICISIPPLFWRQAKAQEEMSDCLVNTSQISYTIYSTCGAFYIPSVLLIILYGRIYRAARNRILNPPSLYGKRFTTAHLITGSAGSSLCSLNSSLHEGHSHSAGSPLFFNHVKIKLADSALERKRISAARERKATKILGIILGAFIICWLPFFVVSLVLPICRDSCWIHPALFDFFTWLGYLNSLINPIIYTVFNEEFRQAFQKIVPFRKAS
Sequence of Kappa-type opioid receptor (P41145 whole entry): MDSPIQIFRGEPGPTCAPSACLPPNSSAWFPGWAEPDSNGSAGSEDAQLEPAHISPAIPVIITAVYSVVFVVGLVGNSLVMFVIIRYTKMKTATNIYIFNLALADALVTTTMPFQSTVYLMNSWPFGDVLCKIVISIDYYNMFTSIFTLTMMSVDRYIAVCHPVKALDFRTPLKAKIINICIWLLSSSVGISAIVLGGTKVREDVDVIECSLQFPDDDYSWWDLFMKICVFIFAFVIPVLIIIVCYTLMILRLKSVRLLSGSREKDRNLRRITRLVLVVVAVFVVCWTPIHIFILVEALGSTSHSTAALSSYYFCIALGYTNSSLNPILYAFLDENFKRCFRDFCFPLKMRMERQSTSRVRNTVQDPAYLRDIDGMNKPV
Sequence of D(1A) dopamine receptor (P21728 whole entry): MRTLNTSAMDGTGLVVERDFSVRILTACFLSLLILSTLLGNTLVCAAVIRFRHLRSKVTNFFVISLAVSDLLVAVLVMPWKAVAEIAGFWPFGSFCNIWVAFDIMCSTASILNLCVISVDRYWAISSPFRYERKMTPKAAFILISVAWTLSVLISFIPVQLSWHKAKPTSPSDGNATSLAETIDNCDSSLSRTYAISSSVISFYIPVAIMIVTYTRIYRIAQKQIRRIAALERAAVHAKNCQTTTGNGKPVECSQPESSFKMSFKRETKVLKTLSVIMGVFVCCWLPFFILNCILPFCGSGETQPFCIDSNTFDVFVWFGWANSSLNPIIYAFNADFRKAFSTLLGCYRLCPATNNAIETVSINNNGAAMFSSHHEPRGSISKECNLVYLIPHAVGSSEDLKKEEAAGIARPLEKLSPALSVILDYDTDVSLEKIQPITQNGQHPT
Sequence of Muscarinic acetylcholine receptor M5 (P08912 whole entry): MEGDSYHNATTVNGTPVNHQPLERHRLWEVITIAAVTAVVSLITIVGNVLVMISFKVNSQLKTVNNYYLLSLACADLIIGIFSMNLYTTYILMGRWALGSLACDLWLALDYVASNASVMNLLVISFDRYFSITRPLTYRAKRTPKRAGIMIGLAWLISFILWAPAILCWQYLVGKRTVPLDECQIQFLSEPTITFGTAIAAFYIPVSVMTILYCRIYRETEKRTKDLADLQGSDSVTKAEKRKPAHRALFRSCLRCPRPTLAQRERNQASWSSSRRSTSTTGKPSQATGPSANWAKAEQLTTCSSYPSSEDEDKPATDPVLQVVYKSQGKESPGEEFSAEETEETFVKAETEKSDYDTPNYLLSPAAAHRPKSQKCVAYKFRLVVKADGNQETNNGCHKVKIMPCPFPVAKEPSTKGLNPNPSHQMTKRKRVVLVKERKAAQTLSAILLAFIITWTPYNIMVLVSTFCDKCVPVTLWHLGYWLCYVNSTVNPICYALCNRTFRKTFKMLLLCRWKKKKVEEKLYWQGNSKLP
Sequence of Muscarinic acetylcholine receptor M2 (P08172 whole entry): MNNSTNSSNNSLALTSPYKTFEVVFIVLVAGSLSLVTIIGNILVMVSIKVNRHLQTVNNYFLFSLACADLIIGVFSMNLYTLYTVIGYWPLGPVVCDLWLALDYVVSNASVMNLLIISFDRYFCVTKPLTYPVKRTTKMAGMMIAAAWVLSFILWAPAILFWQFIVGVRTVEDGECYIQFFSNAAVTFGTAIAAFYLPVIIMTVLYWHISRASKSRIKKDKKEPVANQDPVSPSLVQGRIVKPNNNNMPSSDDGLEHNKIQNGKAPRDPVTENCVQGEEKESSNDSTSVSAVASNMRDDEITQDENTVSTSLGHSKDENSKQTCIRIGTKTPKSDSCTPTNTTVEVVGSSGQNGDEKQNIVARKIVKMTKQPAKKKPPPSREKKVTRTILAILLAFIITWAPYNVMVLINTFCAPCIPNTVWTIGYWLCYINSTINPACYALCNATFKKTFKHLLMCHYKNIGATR
Sequence of Histamine H2 receptor (P25021 whole entry): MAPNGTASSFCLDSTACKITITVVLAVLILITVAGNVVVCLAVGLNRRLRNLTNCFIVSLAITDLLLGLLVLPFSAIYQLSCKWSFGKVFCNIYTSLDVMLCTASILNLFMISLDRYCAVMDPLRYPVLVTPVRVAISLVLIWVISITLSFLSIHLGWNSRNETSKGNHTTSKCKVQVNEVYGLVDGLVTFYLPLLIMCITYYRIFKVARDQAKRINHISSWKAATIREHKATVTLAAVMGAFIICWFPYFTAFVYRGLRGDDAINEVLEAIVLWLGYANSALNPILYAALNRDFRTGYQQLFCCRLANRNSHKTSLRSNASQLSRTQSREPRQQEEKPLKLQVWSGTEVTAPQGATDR

Consider `Nc1ccn([C@@H]2O[C@H](CO)[C@@H](O)C2(F)F)c(=O)n1` [GEMCITABINE], for which the IC50 at 72 h in series [1] came out at 1 nM; in series [2] it was 100 nM.

For `O=C(CN1CCC(CN2Cc3ccccc3C2=O)CC1)c1ccc(F)cc1`, in the series on MIA PaCa-2 [3], the result was Active.

As for `O=C(Nc1cccc2cccnc12)c1cnccn1`, the IC50 in the series with Panc02 was 300 nM; in “cells”, 200 nM; in the series with PANC-1, 1700 nM; in the series with BXPC-3 it was 1800 nM. The outcome with MIA PaCa-2 [4] and with MIA PaCa-2 [5] was Active. Also, the inhibition result in the series on HCT-116 and in the series on MIA PaCa-2 [7] was “inactive” each time. Also, the IC50 at 72 h is 600 nM in series [1], greater than 30000 nM in series [6] and 200 nM in [2].

Take `CCN(CC)CCCC(C)Nc1ccc(S(=O)(=O)Nc2cc(F)cc3cccnc23)nc1` (stereo not given): the t1/2 is given as 39.2 min in series [8] and 15 min in series [10]. The compound also had a concentration for half-maximal inhibition (IC50) in the series on MIA PaCa-2 [9] of 3800 nM. Further, the inhibitory constant (Ki) in series [11] was 38 nM; in series [12] it was 188 nM.

In the case of `CCN(CC)CCCC(C)Nc1cnc(C(=O)Nc2cc(F)cc3cccnc23)cn1` (stereo not given), the Ki in series [13] was 743 nM; on D(1B) dopamine receptor it was 2830 nM; in series [14], 99 nM; in series [15], greater than 10000 nM; on D(3) dopamine receptor, 726 nM; on Histamine H2 receptor, 750 nM. For the same compound, the Ki is 373 nM in series [16]; 5470 nM at D(1A) dopamine receptor; 673 nM in series [17]; 717 nM in series [18]; 713 nM in [19]; 386 nM in [20]. Moreover, the inhibition constant (Ki) in series [21] came out at 279 nM; on Histamine H3 receptor, 1200 nM; in [11] it was 10 nM; in series [22], 2010 nM; in series [23] it was 1350 nM; in series [12], 165 nM. In addition, the half-life at 10 µM in series [8] (liver microsomes) was greater than 60 min. In addition, the t1/2 in [10] came to 45.3 min.

With `Fc1ccc(-n2cc(CCCCN3CCC4(CC3)OCc3ccccc34)c3ccccc32)cc1`, the outcome in the series with MIA PaCa-2 [3] was Active.

With `CCN(CC)CCCC(C)Nc1nc(C(=O)Nc2cc(F)cc3cccnc23)cs1` (stereo not given), the t1/2 in series [8] came out at 23 min; in series [10] it was 3.3 min. This compound registered a half-maximal inhibitory concentration (IC50) with MIA PaCa-2 [9] of 1500 nM. For the same compound, the Ki is 32 nM in series [11] and 159 nM in series [12].

(Values after ChEMBL document CHEMBL5316327, “Design and Synthesis of Orally Active Quinolyl Pyrazinamides as Sigma 2 Receptor Ligands for the Treatment of Pancreatic Cancer” (J Med Chem, 2023).)
